The values that follow come from US10414769B2, “5,8-dimethyl-9-phenyl-5,8-dihydro-6H-pyrazolo[3,4-h]quinazolin-2-yl)-(1H-pyrazol-3-yl)-amines as IGF-1R/IR inhibitors” (Boehringer Ingelheim International GmbH, priority 2015, dated 2019).

Assay [1] has as its system HCT 116 (colorectal carcinoma) cells. Kind of assay: Cell proliferation assay HCT 116 (Alamar Blue). The class given is cell-based. The note with it: Homo sapiens; anti-proliferative effect, HCT 116 cells (negative control line), 72 h. As to the method:
(§1) Cell Proliferation Assays
(§2) Compounds were tested for their anti-proliferative effects in the TC-71 (EWING'S sarcoma) and HCT 116 (colorectal carcinoma) cancer cell lines in vitro. Published scientific data has described that interference with the IGF-1R signaling pathway reduces the proliferation of TC-71 cells (Manara et al, 2007). Therefore TC-71 cells served as a positive control cell line for monitoring the activity of compounds against IGF-1R-mediated cell proliferation. […] Therefore the HCT 116 cell line served as a negative control.
(§3) 2000 TC-71 cells or 1000 HCT 116 cells were seeded per well in 180 μL IMDM+10% foetal calf serum (FCS)+penicillin/streptomycin into 96-well microtitre plates. The plates were placed in a cell culture incubator (37° C. in a humidified atmosphere of […]/5% CO2) overnight. The following day, serial dilutions of compounds, prepared in duplicates, were transferred onto the cell layers (controls without compound). The cells were cultivated for a further 72 h in the cell culture incubator. 20 μL of Alamar Blue™ (Serotec Ltd, Dusseldorf, Germany) was added to each well and the plates incubated for 7 h in the cell culture incubator. Fluorescence (extinction wavelength of 544 nm and emission at 590 nm) was then measured and the normalized data fitted by iterative calculation with a sigmoidal curve analysis program (Graph Pad Prism) with a variable Hill slope to determine the EC50 values.

For a further assay, the target named is T1, human IGF-1R (Homo sapiens, UniProt P08069).
T1 construct: human IGF-1R (amino acids 964-1370) is expressed as a fusion protein; made in house; host or cells: High Five insect cells (Invitrogen)
T1 sequence (P08069 964-1367 limits assumed): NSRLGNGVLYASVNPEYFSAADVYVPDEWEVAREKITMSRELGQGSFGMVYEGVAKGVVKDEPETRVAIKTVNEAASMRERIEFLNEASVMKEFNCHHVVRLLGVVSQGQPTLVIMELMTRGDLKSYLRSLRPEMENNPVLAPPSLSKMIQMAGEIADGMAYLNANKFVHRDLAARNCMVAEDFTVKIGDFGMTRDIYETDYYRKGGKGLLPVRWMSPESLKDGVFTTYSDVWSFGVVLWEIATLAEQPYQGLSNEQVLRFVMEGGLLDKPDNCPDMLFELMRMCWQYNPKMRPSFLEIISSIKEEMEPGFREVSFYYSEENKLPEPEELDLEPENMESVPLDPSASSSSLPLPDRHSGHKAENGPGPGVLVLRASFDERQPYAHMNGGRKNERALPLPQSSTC
In words: Insulin-like growth factor-1 receptor (IGF-1R)-kinase assay (DELFIA). The note with it: inhibition of IGF-1R-kinase activity. The class given is biochemical. As to the method:
Insulin-Like Growth Factor-1 Receptor (IGF-1R)-Kinase Assay
The kinase activity is measured by DELFIA® assay (dissociation-enhanced lanthanide fluorescence immunoassay, Perkin Elmer). The cytoplasmic kinase domain of human IGF-1R (amino acids 964-1370) is expressed as a fusion protein with a glutathione-S-transferase tag (IGF-1R-GST) in High Five™ Cells (Invitrogen). Enzyme activity is measured in the presence of substances and a control substance. Poly-glutamate-tyrosine peptide (pEY, Sigma Aldrich) and biotinylated pEY (bio-pEY) are used as reaction substrates.
10 μL of substance in 25% DMSO are mixed with 30 μL of IGF-1R-GST solution (67 mM HEPES pH 7.4, 15 μg/mL pEY, 1.7 μg/mL bio-pEY, 13.3 mM MgCl2, 3.3 mM dithiothreitol, 0.0033% Brij 35, 2 ng IGF-1R-GST) in 96-well plates. The reactions are started with 10 μL of a 750 μM ATP solution. After 40 min at RT the reactions are stopped with 50 μL of stop solution (250 mM EDTA, 20 mM HEPES pH 7.4). 90 μL from each reaction are transferred onto streptavidin-coated 96-well plates. After 120 min incubation at RT the plates are washed three times with 200 μL phosphate-buffered saline (PBS) per well. The plates are incubated for 60 min with 100 μL of europium-coupled antibody against phospho-tyrosine (diluted 1/2000 in Perkin Elmer DELFIA assay buffer) per well. The plates are washed three times with 200 μL per well of DELFIA washing buffer (Perkin Elmer). 100 μL DELFIA Enhancement Solution (Perkin Elmer) is added to each well, and the plates are incubated for 10 min. The fluorescence signal is measured with a Wallac Victor TRF Reader. IC50 values for the inhibition of the IGF-1R-kinase activity are calculated using the programme GraphPad (Version 3.0).

Assay [2] deals with TC-71 (EWING'S sarcoma) cells. In words: Cell proliferation assay TC-71 (Alamar Blue). The class given is cell-based. Conditions: anti-proliferative effect, TC-71 cells, 72 h; read-out: TC71 EC50. As to the method: as §1, §2, §3

Regarding `C[C@@H]1Cc2nn(C)c(-c3ccccc3)c2-c2nc(Nc3ccn(CCN4CCN(CCO)CC4)n3)ncc21` [Compound I-10], the EC50 in assay [1] is above 2500 nM; in assay [2], 5.93 nM. The compound also returned an IC50 against human IGF-1R of 2.2 nM.

`C[C@@H]1Cc2nn(C)c(-c3ccccc3)c2-c2nc(Nc3ccn(CCN4CCN(CC(=O)OC5CCOC5)CC4)n3)ncc21` (stereo partly drawn) [Compound I-6]: the EC50 in assay [1] was above 2500 nM; in assay [2] it was 5 nM. Further, the IC50 against human IGF-1R was 1.1 nM.

Regarding `CC(C(=O)OC[C@H]1CCCN1)N1CCN(CCn2ccc(Nc3ncc4c(n3)-c3c(nn(C)c3-c3ccccc3)C[C@H]4C)n2)CC1` (stereo partly drawn) [Compound I-4], the EC50 in assay [1] was above 2500 nM; in assay [2], 6.82 nM. This compound came in with a concentration for half-maximal inhibition (IC50) on human IGF-1R of 1.5 nM.

Regarding `C[C@@H]1Cc2nn(C)c(-c3ccccc3)c2-c2nc(Nc3ccn(CCN4CCN(CC(C)(C)O)C(=O)C4)n3)ncc21` [Compound I-5], the EC50 was above 2500 nM in assay [1] and 4 nM in assay [2]. This compound also returned an IC50 on human IGF-1R of 4.8 nM.
